Earlier results in patent publication US7709469B2, “P2X7 receptor antagonists and methods of use” (Abbott Laboratories, priority 2005, dated 2010).

How the values were obtained:
[1] = biological target: T1, P2X7 (Rattus norvegicus, UniProt Q64663); parameters: Rats with SCI were administered P2X7 receptor irreversible antagonists oATP and PPADS; host or cells: living rats (endogenous receptor); settings: rats with SCI
T1 sequence (Q64663 1-595): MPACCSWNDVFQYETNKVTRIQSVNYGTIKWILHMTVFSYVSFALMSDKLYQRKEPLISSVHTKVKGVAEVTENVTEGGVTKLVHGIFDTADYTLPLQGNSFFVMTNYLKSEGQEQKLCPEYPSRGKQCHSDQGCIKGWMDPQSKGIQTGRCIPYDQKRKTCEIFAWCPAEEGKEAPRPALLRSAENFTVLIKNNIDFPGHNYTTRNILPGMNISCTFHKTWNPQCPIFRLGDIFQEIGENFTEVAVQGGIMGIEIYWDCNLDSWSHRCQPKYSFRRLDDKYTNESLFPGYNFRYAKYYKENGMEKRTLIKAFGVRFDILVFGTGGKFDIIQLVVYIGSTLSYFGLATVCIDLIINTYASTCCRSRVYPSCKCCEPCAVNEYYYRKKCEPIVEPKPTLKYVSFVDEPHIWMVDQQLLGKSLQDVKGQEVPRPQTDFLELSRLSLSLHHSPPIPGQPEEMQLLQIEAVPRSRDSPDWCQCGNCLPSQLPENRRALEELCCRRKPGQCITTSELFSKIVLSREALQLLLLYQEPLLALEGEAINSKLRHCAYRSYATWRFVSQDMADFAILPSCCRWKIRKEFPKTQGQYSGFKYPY

[2] = biological target: T1, P2X7; parameters: host or cells: living rats (endogenous receptor); settings: inflamed rats

SMILES | histological injury and recovery of motor function after SCI [1] | antinociceptive properties [2]
Cc1nc(N=Nc2ccc(S(=O)(=O)O)cc2S(=O)(=O)O)c(COP(=O)(O)O)c(C=O)c1O [PPADS] | decrease of histological injury and improved recovery of motor function | –
Nc1ncnc2c1ncn2[C@@H](C=O)O[C@@H](C=O)COP(=O)(O)OP(=O)(O)OP(=O)(O)O [oATP, Oxidized ATP] | decrease of histological injury and improved recovery of motor function | possess peripherally mediated antinociceptive properties
